Measured values as given in patent US20150182605A1, “Ultra-Low Dose Lysostaphin for Treating MRSA” (priority 2013, published 2015).

Columns and labels:
[1] = test system: SA5 (ATCC 49521); experiment: Effect of antibiotics and lysostaphin on growth of SA5 (% T, 96-well); type: cell-based, Staphylococcus aureus; settings: for inhibition and killing of the staph by antibiotic alone: antibiotic alone at 25 or 12.5 mg/ml, 5 and 22 hours
Description: It was determined whether low levels of lysostaphin would act synergistically with Nafcillin or Oxacillin to kill an SA5 (ATCC 49521). The study was performed in a 96-well dish to allow titration of lysostaphin and antibiotics. The end point was % T. Plating of bacteria from the assay plate was not done.
Fifty μl of SA5 (ATCC 49521) was reconstituted from a frozen stock and grown overnight on a blood agar plate at 37° C. Bacteria were transferred from the blood agar plate (approximately 25% of the lawn) into 30 mls of TSB and grown for 2 hours at 37° C. on a rotating shaker set at 250 rpm. […] A 1:4 dilution of this suspension in TSB gave a % T of ˜50% in a 96 well dish.
For the assay, lysostaphin (Sigma Cat L7386; lot 063M4011V; 3387.5 units/ml stock in water) was diluted in three-fold dilutions (in TSB) from 3 units/ml (row A) to 0.0123 units/ml (row G) in 50 μl/well. The wells in row H received TSB alone. This plate was designated the assay plate. In a separate 96-well plate (i.e. the dilution plate), Nafcillin (Sigma Cat N3269; lot SLBF8230V, 50 mg/ml in water) was diluted in TSB to 25 mg/ml and a second dilution of 12.5 mg/ml was also prepared (columns 1 and 2 of the dilution plate). Oxacillin (Sigma Cat 01002; lot SLBC9948V; 50 mg/ml in water) was diluted to 25 mg/ml in TSB and a second dilution of 12.5 mg/ml was also prepared (columns 4 and 5 of the dilution plate).
Fifty μl of the antibiotic solutions were transferred to the corresponding wells of the assay plate containing the lysostaphin solution. 50 μl of TSB alone was transferred to columns 3 and 6 (i.e. no antibiotic controls) of the assay plate. The combination of antibiotics and lysostaphin yielded a volume of 100 μl. 125 μl of S. aureus 49521, diluted 1:2 in TSB was then added to all wells of the plate, except wells H1, H2, H4 and H5, which served as the blank well for determining the % T. After addition of the bacteria, and between each determination of the % T, the plate was incubated at 37° C. with gentle rotation (˜50 rpm). The % T was then determined at 2 and 15 minutes after addition of the bacteria, and again at 5 hours and 22 hours after addition of the bacteria.

[2] = test system: S. aureus type 5 (ATCC 49521); experiment: % T (turbidity) lysis assay of S. aureus type 5 suspension in tubes; type: cell-based, Staphylococcus aureus; settings: 10 minutes at 37° C.
Description: 50 μl of S. aureus type 5 (ATCC 49521) was plated onto blood agar plates and incubated overnight. The resulting bacterial lawn was transferred to 30 mls of TSB (tryptic soy broth; Remel cat 112740) and incubated at 37° C. for about 60 minutes at 225 rpm. The percent transmission (% T) of the bacterial suspension following incubation was about 7%. The % T was adjusted to 53% by addition of 100 μl of bacterial suspension to 4500 μl of TSB (in five individual tubes) and the % T was measured in each tube. An additional tube contained TSB alone. Tube #1 received no lysostaphin. Tube #2 was designated to receive 550 μl of recombinant lysostaphin, but the lysostaphin was erroneously added to Tube #3, and thus, Tube #2 was discarded. Tube #3 received 550 μl recombinant lysostaphin (from a 2,000 μg/ml stock solution) for a final concentration of about 220 μg/ml (this tube erroneously received lysostaphin dose intended for tube #2 (i.e. 500 μl of lysostaphin stock) plus the 50 μl of lysostaphin originally intended for this tube. Tube #4 received 500 μl of natural lysostaphin from S. staphylolyticus (from a 2,000 μg/ml stock solution) for a final concentration of about 200 μg/ml. Tube #5 received 50 μl of natural lysostaphin from S. staphylolyticus (from a 2,000 μg/ml stock solution) for a final concentration of about 20 μg/ml. The tubes were vortexed, incubated at 37° C. for 10 minutes at 150 rpm and the % T for each determined (see FIG. 3 which is summarized in Table 2). An increase in the % T indicates killing of bacteria. Both lysostaphins were highly likely active against this SA5.

[3] = test system: SA5; experiment: % T lysis assay of SA5 in 96-well configuration; type: cell-based, Staphylococcus aureus; settings: 0.1 μg/ml; for change in % T / killing: neat solution of SA5, 10 minutes at 37° C. (FIG. 4)
Description: A second assay was performed in which the SA5 and lysostaphin were tested in a 96-well configuration. For this assay, 100 μl of the SA5 solution was added to wells followed by 100 μl of the lysostaphin solution. % T was obtained at TO and the plate incubated at 37° C. for 10 minutes with gentle rotation. The % T was obtained and the results compared.

[4] = test system: S. aureus cells; experiment: Enzymatic activity per certificate of analysis (COA); type: biochemical, Staphylococcus aureus; settings: from COAs of both products
Description: Doses may also be as international units. One international unit (IU) is about 3.1 μg and will reduce the turbidity (A620) of a suspension of S. aureus cells from 0.250 to 0.125 in 10 minutes at pH 7.5 at 37° C. in a 6.0 ml reaction mixture.

[5] = test system: anti-lysostaphin antibodies; experiment: Assay of mouse sera on lysostaphin-coated plates after immunization; type: binding; settings: gamma-specific detection, compared with the other lysostaphin as coating antigen, regardless of the immunogen
Description: Assay of mouse sera on plates coated with lysostaphin from simulans expressed as recombinant in E coli and coated with natural lysostaphin from S. staphylolyticus. Mice received a primary immunization (subcutaneous) with 10 μg recombinant lysostaphin from E. coli (Sigma-Aldrich) (animal numbers 8603, 8604) or 10 μg of natural lysostaphin from S. staphylolyticus (Sigma-Aldrich) (animal numbers 8621-8623). Primary immunization was administered and boosted about three weeks later. No adjuvant was used for the immunizations. Serum samples were tested using gamma-specific detection (FIGS. 1 and 2). Bars represent binding seen with normal serum (first bar), serum after the first injection (second bar), and serum after the boost injection three weeks later (third and in most cases largest bar). The results on wells coated with simulans lysostaphin (FIG. 1) were stronger than the results on wells coated with staphylolyticus lysostaphin (FIG. 2), regardless of the immunogen. Mouse 8621 was poorly reactive on both coating antigens. Note that each graph is scaled to 1.500 on the y-axis for comparison purposes.

[6] = test system: S. aureus cells; settings: from COA; cited from earlier work

lysostaphin: lysostaphin (Sigma Cat L7386; lot 063M4011V; 3387.5 units/ml stock in water); 27 kD glycylglycine endopeptidase
synergy of lysostaphin with the antibiotics ([1]; lysostaphin 0.0123 units/ml with Nafcillin or Oxacillin, 5 to 22 hours): acted synergistically | % T ([1]; lysostaphin 0.0123 units/ml without antibiotic, 5 hours, FIG. 8): 97.0 % T | % T ([1]; lysostaphin 0.0123 units/ml without antibiotic, 5 hours, FIG. 11): 98.0 % T | % T ([1]; lysostaphin 0.0123 units/ml without antibiotic, 22 hours, FIG. 8): 75.4 % T | % T ([1]; lysostaphin 0.0123 units/ml without antibiotic, 22 hours, FIG. 11): 60.2 % T | % T ([1]; lysostaphin 0.0123 units/ml, within 5 hours): > 95 % T | % T ([1]; lysostaphin at concentrations higher than 0.0123 units/ml, at 5 (not shown)): > 95% | % T ([1]; most concentrations of lysostaphin, without antibiotics, after 22 hours): below 70%

Cc1onc(-c2ccccc2)c1C(=O)N[C@@H]1C(=O)N2[C@@H]1SC(C)(C)[C@@H]2C(=O)O [Oxacillin, reference compound]
inhibition and killing of the staph by antibiotic alone [1]: ineffective rapid inhibition and killing

recombinant lysostaphin: lysostaphin from simulans expressed as recombinant in E. coli (Sigma-Aldrich)
Ending % T ([2]; 220 μg/ml, tube 3, increase in % T indicates killing): 94.0 % T | change in % T / killing [3]: remained strong | activity relative to natural lysostaphin [4]: 6-7 fold | binding of mouse serum antibodies to the coated lysostaphin [5]: markedly higher binding | binding of mouse serum antibodies to the coated lysostaphin ([5]; listed as simulans lysostaphin): stronger | enzymatic activity [6]: greater than 3,000 units per mg

CCOc1ccc2ccccc2c1C(=O)N[C@@H]1C(=O)N2[C@@H]1SC(C)(C)[C@@H]2C(=O)O [Nafcillin, reference compound]
inhibition and killing of the staph by antibiotic alone [1]: ineffective rapid inhibition and killing

natural lysostaphin: natural lysostaphin from S. staphylolyticus (Sigma-Aldrich)
Ending % T ([2]; 20 μg/ml, tube 5): 95.0 % T | Ending % T ([2]; 200 μg/ml, tube 4): 94.6 % T | change in % T ([3]; SA5 at a dilution of 1:2 vs neat SA5 (FIG. 5)): greater change | change in % T / killing [3]: increased only slightly
